Measured values taken from patent US10851097B2, “4,5,6,7-tetrahydro-1H-imidazo[4,5-c]pyridine and 1,4,5,6,7,8-hexahydroimidazo[4,5-d]azepine derivatives as janus kinase inhibitors” (Topivert Pharma Limited, priority 2015, dated 2020).
≈ marks a conversion by molar mass, not a printed value. Where two headings read alike, the source gives them in different places.

Assays:
[1] = Solubility in fasted-state simulated colonic fluid (FaSSCoF) at pH 6.5; assay type: physicochemical; details: 25 °C, pH 6.5, fassgf or other biorelevant, thermodynamic from solid, pH 6.5, 25° C., Run 1, read-out: pH 6.5 FaSSCoF Solubility Run 1
Procedure: The solubilities of compounds of the invention in FaSSCoF at pH 6.5 are determined using a modification of a previously-reported procedure (Vertzoni, M., et al. Pharm. Res. 2010, 27, 2187-2196). In place of the bile salt extract employed in the original procedure (which extract is no longer available), the modified procedure uses a mixture of sodium taurochlorate (0.15 g), glycocholic acid (0.15 g), ursodeoxycholic acid (0.05 g), cholic acid (0.05 g), and glycodeoxycholic acid (0.05 g). These five bile acids are ground together with a mortar and pestle to produce a fine white powder that is incorporated into the FaSSCoF, as outlined below.
Tris(hydroxymethyl)aminomethane (Tris; 0.275 g) and maleic acid (0.44 g) are dissolved in water (35 mL) to give a solution whose pH is adjusted to 6.5 by treatment with 0.5M NaOH (ca. 12 mL). The solution is then made up to 50 mL with water. A portion of this Tris/maleate buffer solution (ca. 25 mL) is added to a 0.5 L round-bottomed flask, before being treated with 0.00565 g of the bile acid mixture described above. Solutions of phosphatidylcholine (0.0111 g) in DCM (0.15 mL) and palmitic acid (0.0013 g) in DCM (0.15 mL) are added, then the organic solvent is evaporated off under reduced pressure at 40° C. until a clear solution, with no perceptible DCM odour, is achieved. The volume of the evaporated solution is adjusted to 50 mL by addition of the remainder of Tris/maleate buffer, then BSA (0.115 g) is added, before being dissolved by gentle agitation.
Test compounds are suspended in the pH 6.5 FaSSCoF medium to give a maximum final concentration of 2-10 mg/mL. The suspensions are equilibrated at 25° C. for 24 h, before being filtered through a glass fibre C filter. The filtrates are then diluted as appropriate for injection and quantification by HPLC with reference to a standard. Different volumes of the standard, diluted and undiluted sample solutions are injected and the solubilities are calculated using the peak areas determined by integration of the peak found at the same retention time as the principal peak in the standard injection.

[2] = molecular target: T1, JAK2 (Homo sapiens, UniProt O60674); assay: KINOMEscan enzyme binding assay (DiscoveRx), JAK2; details: read-out: Dissociation Constant JAK2
T1 construct: purchased DiscoveRx (LeadHunter Discover Services, KINOMEscan)
Procedure: (§1) These assays may be conducted by DiscoveRx (formerly Ambit; San Diego, Calif.). The percentage inhibition produced by incubation with a test compound may be calculated relative to the non-inhibited control.

[3] = Systemic pharmacokinetics and total colon tissue distribution after single oral administration in mice; assay type: in vivo, male C57BL/6 mice; details: for Kp: total colon tissue / plasma, po, 10 mg/kg
Procedure: Studies were conducted by Sai Life Sciences (Hinjewadi, Pune, India) to investigate the systemic pharmacokinetics and total colon tissue distribution of compounds of the invention following a single oral administration in male C57BL/6 mice.
A group of twenty four male mice were administered with a solution of test compound formulated at a dose of 10 mg/10 mL/kg in aqueous hydroxypropyl-β-cyclodextrin (20% w/v in water). Blood samples (approximately 60 μL) were collected from retro-orbital plexus of each mouse under light isoflurane anaesthesia such that the samples were obtained at 0.5, 1, 2, 4, 6, 8, 12 and 24 hr. The blood samples were collected from a set of three mice at each time point in a labeled micro centrifuge tube containing K2EDTA as anticoagulant. Plasma samples were separated by centrifugation at 4000 rpm for 10 min and stored below −70° C. until bioanalysis. After collection of blood sample, animals were humanely euthanized by carbon dioxide asphyxiation to collect total colon tissues. The colons were flushed with cold PBS (pH7.4) to remove contents. The total colon tissues were homogenized with cold PBS (pH7.4) of twice the weight of colon tissue and stored below −70° C. Total volume was three times the total colon tissue weights. All samples were processed for analysis by protein precipitation using acetonitrile and analyzed with a fit-for-purpose LC-MS/MS method. Pharmacokinetic parameters were calculated using the non-compartmental analysis tool of Phoenix WinNonlin® (Version 6.3).

[4] = molecular target: T2, JAK3 (Homo sapiens, UniProt P52333); assay: KINOMEscan enzyme binding assay (DiscoveRx), JAK3; details: read-out: Dissociation Constant JAK3
T2 construct: purchased DiscoveRx (LeadHunter Discover Services, KINOMEscan)
Procedure: as §1

[5] = system: Jurkat cells; assay: Cell cytotoxicity assay in Jurkat cells (assay (c)); assay type: cell-based, human; details: 24 h, propidium iodide, normalised to DMSO control
Procedure: (c) Cell Cytotoxicity Assay
1×10^5 Jurkat cells (immortalised human T lymphocytes) are added to the appropriate number of wells of a 96 well plate in 100 μL of media (RPMI supplemented with 10% foetal bovine serum). 1 μL of DMSO control (final concentration 1.0% v/v) or test compound (final concentration 20, 5 or 1 μg/mL) is added to the wells and incubated at 37° C., 5% CO2. After 24 hours, the plate is centrifuged at 1200 rpm for 3 minutes and the supernatant discarded. Cells are then resuspended in 150 μL (final concentration 7.5 μg/mL) of propidium iodide (PI) in PBS and incubated at 37° C., 5% CO2 for 15 minutes. After 15 minutes, cells are analysed by flow cytometry (BD accuri) using the FL3 window. The % viability is calculated as the % of cells that are PI negative in the test wells normalised to the DMSO control.

[6] = molecular target: T3, JAK1 (Homo sapiens, UniProt P23458); assay: KINOMEscan enzyme binding assay (DiscoveRx), JAK1; details: read-out: Dissociation Constant JAK1
T3 construct: purchased DiscoveRx (LeadHunter Discover Services, KINOMEscan)
Procedure: as §1

[7] = male, C57BL/6, mouse, oral 10 mg/kg, plasma, read-out: Mean plasma concentration
[8] = male, C57BL/6, mouse, total colon tissue, oral 10 mg/kg, total colon, read-out: Total colon level

T2 sequence (P52333 813-1124 limits assumed): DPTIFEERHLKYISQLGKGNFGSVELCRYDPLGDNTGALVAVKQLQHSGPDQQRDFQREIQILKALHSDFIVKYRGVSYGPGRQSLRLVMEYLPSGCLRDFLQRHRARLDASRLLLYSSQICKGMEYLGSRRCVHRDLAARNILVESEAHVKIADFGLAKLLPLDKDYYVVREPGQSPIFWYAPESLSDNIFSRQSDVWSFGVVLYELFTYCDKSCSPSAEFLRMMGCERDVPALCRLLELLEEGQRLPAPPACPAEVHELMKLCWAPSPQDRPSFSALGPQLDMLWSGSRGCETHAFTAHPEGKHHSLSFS
T1 sequence (O60674 840-1132 limits assumed): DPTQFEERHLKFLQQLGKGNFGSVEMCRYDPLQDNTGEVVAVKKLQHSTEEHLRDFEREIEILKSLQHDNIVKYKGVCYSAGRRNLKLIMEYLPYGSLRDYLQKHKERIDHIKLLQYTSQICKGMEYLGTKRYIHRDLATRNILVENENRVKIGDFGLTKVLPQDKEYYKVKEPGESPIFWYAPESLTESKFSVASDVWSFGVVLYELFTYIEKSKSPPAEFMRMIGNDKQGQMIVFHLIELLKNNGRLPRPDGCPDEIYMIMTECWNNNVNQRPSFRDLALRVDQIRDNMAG
T3 sequence (P23458 866-1154 limits assumed): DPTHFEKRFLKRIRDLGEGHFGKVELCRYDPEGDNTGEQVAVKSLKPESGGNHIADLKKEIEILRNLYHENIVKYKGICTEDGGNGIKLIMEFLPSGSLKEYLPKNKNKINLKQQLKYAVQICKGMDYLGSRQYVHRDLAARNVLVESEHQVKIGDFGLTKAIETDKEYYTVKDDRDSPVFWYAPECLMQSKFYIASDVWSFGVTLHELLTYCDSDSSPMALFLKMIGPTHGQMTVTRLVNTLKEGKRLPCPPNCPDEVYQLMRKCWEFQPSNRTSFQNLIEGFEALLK

## CCc1cc(O)c(F)cc1-c1ccc2c(-c3nc4c([nH]3)CCN(C(=O)c3cnc(N(C)CCN5CCCC5=O)cn3)C4)n[nH]c2c1 [Example 2(k), 1-(2-((5-(2-(6-(2-ethyl-5-fluoro-4-hydroxyphenyl)-1H-indazol-3-yl)-4,5,6,7-tetrahydro-1H-imidazo[4,5-c]pyridine-5-carbonyl)pyrazin-2-yl)(methyl)amino)ethyl)pyrrolidin-2-one]
[1]
  solubility thermodynamic at 24 h: 10 µg/mL (≈ 16 µM)
[2]
  Kd: 0.047 nM
[3]; [7]
  concentration at 0.5 h: 2.4 ng/mL
  concentration at 1 h: 2.6 ng/mL
  concentration at 2 h: 1.9 ng/mL
  concentration at 4 h: 1.1 ng/mL
  concentration at 6 h: 3.4 ng/mL
  concentration at 8 h: 4.8 ng/mL
  concentration at 12 h: 1.2 ng/mL
  concentration at 24 h: 0 ng/mL
[3]; male, C57BL/6, mouse, oral 10 mg/kg, plasma, read-out: AUC0-24 h P (plasma)
  AUC(0-t): 20 ng·h/mL
[3]; male, C57BL/6, mouse, oral 10 mg/kg, plasma, read-out: Cmax P (plasma)
  Cmax: 4.8 ng/mL
[3]; male, C57BL/6, mouse, read-out: AUC0-24 h ratio (total colon to plasma)
  Kp: 4850
[3]; male, C57BL/6, mouse, read-out: Cmax ratio (total colon to plasma)
  Kp: 3170
[3]; [8]
  concentration at 0.5 h: 431 ng/g
  concentration at 1 h: 1160 ng/g
  concentration at 2 h: 5450 ng/g
  concentration at 4 h: 7230 ng/g
  concentration at 6 h: 4820 ng/g
  concentration at 8 h: 15200 ng/g
  concentration at 12 h: 2220 ng/g
  concentration at 24 h: 44.8 ng/g
[3]; male, C57BL/6, mouse, total colon tissue, oral 10 mg/kg, total colon, read-out: Cmax C (total colon)
  Cmax: 15200 ng/g
[3]; oral 10 mg/kg, plasma, in words
  Systemic plasma exposure following oral administration: very low
[3]; oral 10 mg/kg, total colon
  AUC0-24 h C (total colon): 97,062 h · ng/g
[3]; oral 10 mg/kg, total colon, in words
  Colonic concentrations following oral administration: substantial colonic concentrations
[4]
  Kd: 0.092 nM
[5]
  % viability at 1 μg/mL: 93%
[6]
  Kd: 1 nM
